Experimental data: ChEMBL document CHEMBL4765358, “Discovery of highly potent and selective antiparasitic new oxadiazole and hydroxy-oxindole small molecule hybrids” (Eur J Med Chem, 2020)

Legend:
Trypanosoma cruzi = test: Antitrypanosomal activity against Trypanosoma cruzi (MHOM/CH/00/Tulahuen C2, lacZ) amastigotes infected in HFF-1 cells assessed as reduction in parasite growth incubated for 120 hrs by CPRG/Igepal substrate based photometric method; assay type: functional, organism-based; conditions: MHOM/CH/00/Tulahuen C2, HFF-1, 120 h
[1] = Cytotoxicity against human HFF-1 cells assessed as reduction in cell viability incubated for 120 hrs by MTS assay; assay type: cell-based
Leishmania infantum = test: Antileishmanial activity against Leishmania infantum MHOM/MA/67/ITMAP-263 infected in THP1 cells assessed as reduction in parasite growth incubated for 120 hrs by Giemsa staining based inverted microscopic analysis; assay type: functional, organism-based; conditions: MHOM/MA/67/ITMAP-263, THP-1, 120 h
[2] = Cytotoxicity against human HepG2 cells assessed as reduction in cell viability incubated for 120 hrs by MTS assay; assay type: cell-based

| Compound | IC50 (Trypanosoma cruzi) [µM] | CC50 at 120 h [1] [µM] | IC50 (Leishmania infantum) [µM] | CC50 at 120 h [2] [µM] |
| --- | --- | --- | --- | --- |
| C=C(c1nc(-c2ccccc2)no1)C1(O)C(=O)N(CC)c2ccc(C)cc21 (configuration not stated) | 16.6 | > 64 | 6.01 | 26.7 |
| C=Cc1nc(-c2ccc([N+](=O)[O-])cc2)no1 | > 64 | > 64 | 12.2 | 26.9 |
| C=C(c1nc(-c2ccc(Cl)cc2)no1)C1(O)C(=O)N(CC)c2ccccc21 (configuration not stated) | 23.6 | > 64 | 4.01 | 13.8 |
| C=C(c1nc(-c2ccccc2)no1)C1(O)C(=O)N(c2ccccc2)c2ccccc21 (configuration not stated) | 16.2 | 27.9 | 8.17 | 14.1 |
| C=C(c1nc(-c2ccc(OC)cc2)no1)C1(O)C(=O)N(CC)c2ccc(OC)cc21 (configuration not stated) | > 64 | 54.5 | 22 | 13.6 |
| C=C(c1nc(-c2ccccc2)no1)C1(O)C(=O)N(CC)c2c(Br)cccc21 (configuration not stated) | > 100 | 21.5 | 10.4 | 22.8 |
| C=C(c1nc(-c2ccccc2)no1)C(O)c1ccc(S(C)(=O)=O)cc1 (configuration not stated) | 64.4 | > 64 | 8.47 | 28.7 |
| C=C(c1nc(-c2ccccc2)no1)C(O)c1ccc(OC)cc1 (configuration not stated) | 81.3 | > 64 | 18 | 33.6 |
| C=C(c1nc(-c2ccccc2)no1)C(O)c1cc2c(cc1Br)OCO2 (configuration not stated) | 17.6 | > 64 | 8.93 | 58.5 |
| C=C(c1nc(-c2ccc(OC)cc2)no1)C1(O)C(=O)N(CC)c2ccc([N+](=O)[O-])cc21 (configuration not stated) | > 64 | > 64 | 25.9 | 13.6 |
| C=C(c1nc(-c2ccccc2)no1)C1(O)C(=O)N(CC)c2ccc(OC)cc21 (configuration not stated) | > 100 | > 64 | 7.29 | 13.5 |
| C=C(c1nc(-c2ccc([N+](=O)[O-])cc2)no1)C(O)c1cc(OC)c(OC)c(OC)c1 (configuration not stated) | > 64 | > 64 | 52.6 | 57.3 |
| C=C(c1nc(-c2ccc([N+](=O)[O-])cc2)no1)C1(O)C(=O)N(CC)c2ccc(OC)cc21 (configuration not stated) | > 64 | 43.6 | 12 | 5.83 |
| C=C(c1nc(-c2ccccc2)no1)C(O)c1ccccc1Cl (configuration not stated) | 25.7 | > 64 | 17.6 | 59.2 |
| C=C(c1nc(-c2ccccc2)no1)C(O)c1ccc(Cl)cc1 (configuration not stated) | 57.5 | > 64 | 6.92 | 10.1 |
| C=C(c1nc(-c2ccc([N+](=O)[O-])cc2)no1)C(O)c1nccs1 (configuration not stated) | 37.1 | > 64 | > 64 | > 64 |
| C=C(c1nc(-c2ccccc2)no1)C1(O)C(=O)N(CC)c2ccc(F)cc21 (configuration not stated) | 14.8 | > 64 | 3.51 | 9.37 |
| C=C(c1nc(-c2ccccc2)no1)C1(O)C(=O)N(C)c2ccccc21 (configuration not stated) | > 64 | 53.8 | 51.4 | 6.73 |
| C=C(c1nc(-c2ccc(Cl)cc2)no1)C1(O)C(=O)N(CC)c2ccc(OC)cc21 (configuration not stated) | 28.4 | 40.7 | 5.09 | 11.5 |
| CCN1C(=O)C2(OCC=C2c2nc(-c3ccccc3)no2)c2ccccc21 (configuration not stated) | 12.1 | 20.6 | 11.7 | 60.4 |
| C=C(c1nc(-c2ccc(OC)cc2)no1)C(O)c1ccccc1 (configuration not stated) | > 100 | 55.1 | 11.5 | 39.6 |
| C=CCOC1(C(=C)c2nc(-c3ccccc3)no2)C(=O)N(CC)c2ccccc21 (configuration not stated) | 12 | > 64 | 10.7 | > 64 |
| C=C(c1nc(-c2ccc(OC)cc2)no1)C1(O)C(=O)N(CC)c2ccccc21 (configuration not stated) | > 64 | > 64 | 2.85 | 26.9 |
| C=C(c1nc(-c2ccccc2)no1)C(O)c1ccc(Cl)c(F)c1 (configuration not stated) | 27 | > 64 | 18.9 | 27.8 |
| C=C(c1nc(-c2ccc([N+](=O)[O-])cc2)no1)C1(O)C(=O)N(CC)c2ccccc21 (configuration not stated) |  |  | 3.33 | 10.9 |
| C=C(c1nc(-c2ccccc2)no1)C(O)/C=C/c1ccccc1 (configuration not stated) | 55.7 | > 64 | 20.6 | 30.3 |
